The source of these data is patent publication US7341836B2, “Modified cyclic nucleotide gated ion channels” (The Regents of the University of Colorado, priority 2001, dated 2008).

One assay deals with T1, PDE VII (UniProt Q9QXQ1).
T1 sequence (Q9QXQ1 1-446): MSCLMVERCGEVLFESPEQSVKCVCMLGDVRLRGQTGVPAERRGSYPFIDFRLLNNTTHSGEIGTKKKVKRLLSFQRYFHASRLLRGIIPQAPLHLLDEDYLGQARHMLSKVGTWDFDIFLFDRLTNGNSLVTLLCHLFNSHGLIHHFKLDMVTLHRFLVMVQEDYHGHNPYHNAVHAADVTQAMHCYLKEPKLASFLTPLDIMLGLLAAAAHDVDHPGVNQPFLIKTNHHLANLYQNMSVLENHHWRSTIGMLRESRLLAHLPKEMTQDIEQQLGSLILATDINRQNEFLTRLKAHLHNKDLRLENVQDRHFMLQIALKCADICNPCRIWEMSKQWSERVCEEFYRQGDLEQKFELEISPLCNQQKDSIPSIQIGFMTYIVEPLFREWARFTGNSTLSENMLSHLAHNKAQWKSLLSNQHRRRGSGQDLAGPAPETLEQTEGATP
The following applies: cited from earlier work.

The subject of the next assay is PDE VI. Conditions: cited from earlier work.
The test system of a further assay is PDE III. Conditions: cited from earlier work.
The target of the next assay is T2, PDE VIII (Mus musculus, UniProt O88502).
T2 construct: host or cells: heterologously expressed
T2 sequence (O88502 1-823): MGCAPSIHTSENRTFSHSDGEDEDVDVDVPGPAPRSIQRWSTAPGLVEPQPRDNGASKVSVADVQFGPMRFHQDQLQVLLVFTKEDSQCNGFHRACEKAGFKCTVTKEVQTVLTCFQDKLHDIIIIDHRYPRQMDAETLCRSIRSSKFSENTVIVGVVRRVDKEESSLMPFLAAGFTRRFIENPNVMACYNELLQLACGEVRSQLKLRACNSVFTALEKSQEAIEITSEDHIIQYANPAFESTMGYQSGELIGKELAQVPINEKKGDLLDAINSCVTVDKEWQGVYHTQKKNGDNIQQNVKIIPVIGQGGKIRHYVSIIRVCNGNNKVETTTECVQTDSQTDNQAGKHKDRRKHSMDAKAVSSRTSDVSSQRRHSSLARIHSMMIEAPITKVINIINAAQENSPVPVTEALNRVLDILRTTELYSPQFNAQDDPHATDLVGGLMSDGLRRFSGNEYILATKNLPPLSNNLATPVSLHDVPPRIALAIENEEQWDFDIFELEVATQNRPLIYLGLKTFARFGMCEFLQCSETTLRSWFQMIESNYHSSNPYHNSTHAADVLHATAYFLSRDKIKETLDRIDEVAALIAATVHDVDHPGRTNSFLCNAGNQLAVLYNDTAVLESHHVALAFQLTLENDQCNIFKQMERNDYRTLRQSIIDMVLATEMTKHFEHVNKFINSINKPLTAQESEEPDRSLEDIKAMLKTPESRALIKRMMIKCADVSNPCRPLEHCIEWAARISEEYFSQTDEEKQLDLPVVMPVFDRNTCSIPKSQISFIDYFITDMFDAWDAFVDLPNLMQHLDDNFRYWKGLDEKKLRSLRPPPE
Conditions: cited from earlier work.

For another assay, the system named is PDE I. Conditions: cited from earlier work.
Assay [1] has as its system PDE activity in GH4C1 cells. The assay can be described thus: Effect of PDE inhibitors, forskolin and VIP on cAMP levels (Ca2+ influx through CNG channels). It is filed as cell-based, rat. The following applies: for d(ΔF/F0)/dt: basal cAMP, inhibitor concentration (μM). As for the experimental part: To further test the utility of this approach, PDE activity in excitable GH4C1 pituitary cells was examined. In all of the experiments shown (See, FIGS. 13-14, and Table 2), 1 μM nimodipine was added at time zero to block Ca^2+ influx though voltage-gated Ca^2+ channels (triggered by membrane depolarization due to Ca^2+ and Na^+ influx through CNG channels). […] FIGS. 13 and 14 each depict experiments done on a single batch of cells. As before, similar results were obtained on three other batches. In the experiments that produced the data shown in Table 2, cAMP concentrations were monitored using Ca^2+ influx through C460W/E583M channels. […] Either 100 μM IBMX or vehicle (-IBMX; control) were added at time zero. Then, 50 μM forskolin were added at 180 seconds d(ΔF/F0)/dt, which is proportional to the Ca^2+ influx rate, was estimated as described in the Examples. Data are provided as mean±standard error. IBMX or vehicle was added at 60 seconds (first arrow in FIG. 13). Either 10 μM forskolin or 100 nM VIP were added at 240 seconds (second arrow in FIG. 13). In the absence of IBMX, large forskolin or VIP-induced increases in Ca^2+ influx were observed. […] This level of basal AC activity was quite different from that observed in HEK-293 cells (See, FIGS. 9 and 10). 1 μM nimodipine was added at time 0 to block endogenous voltage-gated Ca^2+ channels.
To identify the PDE family or families that regulate the local cAMP concentration in GH4C1 cells, cAMP accumulation was monitored in the presence and absence of PDE inhibitors (See, Table 2). Again, the high cAMP affinity C460W/E583M channels were used. PDE inhibitors were added at 60 s. Although the addition of IBMX alone triggered Ca^2+ influx, 10 μM forskolin were added at 240 s as a positive control for CNG channel activity. […] This PDE is likely to have a low Km for cAMP because it is capable of regulating cAMP at concentrations too low for the WT or Δ61-90/C460W/E583M channels to detect. Thus, it is contemplated that a Ca^2+-CaM stimulated PDE (type I) is primarily responsible for controlling basal cAMP signals in GH4C1 cells.
In addition, PDE activity was monitored using Δ61-90/C460W/E583M channels to detect changes in cAMP concentration (See, FIG. 14). PDE inhibitors and forskolin were added as described above. With this construct, it was not possible to observe changes in cAMP concentration due to inhibition of PDE activity alone. […] Inhibitors specific to other PDE types had no effect on the forskolin-induced Ca^2+ influx (data not shown). […] It is contemplated that Ca^2+ influx through the C460W/E583M channels was saturated at cAMP concentrations below the Km for this PDE. Thus, it is contemplated that there are two different PDE types that regulate local cAMP signals in GH4C1 cells: a low Km, 8-methoxymethyl-IBMX sensitive PDE (type I); and a high Km, RO-20-1724-, rolipram-sensitive PDE (type IV).
GH4C1 rat pituitary cells (ATCC) were maintained in 13 mL Ham's F-10 medium (Life Technologies) supplemented with 14.3 mM NaHCO3, 15% donor horse serum (Gemini), and 2.5% fetal bovine serum, pH 6.8, in 75 cm^2 flasks at 37° C. in a humidified atmosphere of 95% air and 5% CO2. Cells were split weekly (1:4) and washed with fresh medium twice weekly. Cells were plated at ˜60% confluence in 100 mm culture dishes twenty-four hours prior to infection with the CNG-channel-encoding adenovirus constructs (multiplicity of infection=50 plaque forming units per cell). Forty-eight hours post-infection cells were detached, resuspended in serum-containing medium, and assayed within 12 hours.
In this Example, experiments conducted to examine the response of excitable GH4C1 pituitary cells to stimulation by either forskolin or the hormone vasoactive intestinal peptide (VIP), in the presence of absence of PDE inhibitors are described. […]
Background: Changes in cAMP serve as a functional read-out for many G protein-coupled receptors.

The target in another assay is T3, PDE IX (UniProt O70628).
T3 sequence (O70628 1-534): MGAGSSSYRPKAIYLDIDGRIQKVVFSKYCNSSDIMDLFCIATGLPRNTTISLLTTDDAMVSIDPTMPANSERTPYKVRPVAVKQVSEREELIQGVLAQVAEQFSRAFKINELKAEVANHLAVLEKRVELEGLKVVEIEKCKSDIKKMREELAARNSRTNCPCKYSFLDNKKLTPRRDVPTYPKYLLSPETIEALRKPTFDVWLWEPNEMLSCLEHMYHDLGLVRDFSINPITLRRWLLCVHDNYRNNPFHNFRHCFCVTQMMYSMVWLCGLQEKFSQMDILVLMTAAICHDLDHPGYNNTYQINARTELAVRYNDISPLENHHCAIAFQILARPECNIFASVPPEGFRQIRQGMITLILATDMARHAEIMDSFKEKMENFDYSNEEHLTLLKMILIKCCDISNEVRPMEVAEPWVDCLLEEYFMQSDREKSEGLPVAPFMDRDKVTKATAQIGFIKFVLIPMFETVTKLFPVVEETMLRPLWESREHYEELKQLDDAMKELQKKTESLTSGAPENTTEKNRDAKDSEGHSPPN
Conditions: read-out: IC50, PDE IX; cited from earlier work.

A further assay has as its system PDE IV. The following applies: cited from earlier work.

Molecules are shown by their SMILES. pIC50: −log10 of the molar value. “Also recorded” adds a separate entry of the source. Bounds are passed on as bounds.

Take `CCCOc1ccccc1-c1nc2nn[nH]c2c(=O)[nH]1` [Zaprinast]: the pIC50 (in general, −log10 of the IC50, conventionally taken in molar units) at PDE VII was less than 4.30; in the assay with PDE VI, 6.82; with PDE III it was 5.00; at PDE VIII, less than 4.00; with PDE I, 5.00 to 5.52; on PDE IX, 4.46 to 4.54. Further, the “d(ΔF/F0)/dt” value in assay [1] (C460W/E583M channels) amounted to 0 s⁻¹.
For `COCc1nc2c([nH]1)c(=O)n(C)c(=O)n2CC(C)C` [8-methoxymethyl-IBMX], the pIC50 is 4.16 in the assay with PDE III, 5.10 to 5.70 with PDE I and less than 4.00 in the assay with PDE IV. The “Ca2+ influx induced by the PDE inhibitor alone (basal cAMP)” value in assay [1] (C460W/E583M channels, no AC stimulation) is on record as “induced Ca^2+ influx through CNG channels”. In addition, in assay [1] (C460W/E583M channels), the “d(ΔF/F0)/dt” value came to 0.0025 ± 0.0009 s⁻¹. The “effect on forskolin-induced Ca2+ influx / PDE activity” value in assay [1] (Δ61-90/C460W/E583M channels, 10 μM forskolin) was “significantly inhibited PDE activity; also recorded: increase forskolin-induced Ca^2+ influx through CNG channels”.
